Source: article PMC10046369, “Low-Affinity/High-Selectivity Dopamine Transport Inhibition Sufficient to Rescue Cognitive Functions in the Aging Rat” (Biomolecules, 2023)

Assays:
Assay in all cases: biochemical
Set-up in all cases: KINOMEscan competition binding panel, per cent of control
Conditions in all cases: read-out: %Ctrl @ 2800nM
PIK3CA(Q546K) = PIK3CA(Q546K) (Homo sapiens, UniProt P42336, Q546K)
In short: (§1)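 Values are expressed as percent of control, calculated as ((test − positive control)/(negative control − positive control)) × 100, so lower numbers mean stronger hits. Binding was measured by KINOMEscan competition assay in a 450-kinase human panel including disease mutants, using the contractor's validated protocol.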

DAPK3 = DAPK3 (Homo sapiens, UniProt O43293)
In short: as §1

BMPR2 = BMPR2 (Homo sapiens, UniProt Q13873)
In short: as §1

GSK3B = GSK3B (Homo sapiens, UniProt P49841)
In short: as §1

TGFBR1 = TGFBR1 (Homo sapiens, UniProt P36897)
In short: as §1

PLK4 = PLK4 (Homo sapiens, UniProt O00444)
In short: as §1

PKMYT1 = PKMYT1 (Homo sapiens, UniProt Q99640)
In short: as §1

OSR1 = molecular target: T1, OSR1 (Homo sapiens, UniProt O95747)
T1 construct: gene OXSR1
T1 sequence (O95747 whole entry): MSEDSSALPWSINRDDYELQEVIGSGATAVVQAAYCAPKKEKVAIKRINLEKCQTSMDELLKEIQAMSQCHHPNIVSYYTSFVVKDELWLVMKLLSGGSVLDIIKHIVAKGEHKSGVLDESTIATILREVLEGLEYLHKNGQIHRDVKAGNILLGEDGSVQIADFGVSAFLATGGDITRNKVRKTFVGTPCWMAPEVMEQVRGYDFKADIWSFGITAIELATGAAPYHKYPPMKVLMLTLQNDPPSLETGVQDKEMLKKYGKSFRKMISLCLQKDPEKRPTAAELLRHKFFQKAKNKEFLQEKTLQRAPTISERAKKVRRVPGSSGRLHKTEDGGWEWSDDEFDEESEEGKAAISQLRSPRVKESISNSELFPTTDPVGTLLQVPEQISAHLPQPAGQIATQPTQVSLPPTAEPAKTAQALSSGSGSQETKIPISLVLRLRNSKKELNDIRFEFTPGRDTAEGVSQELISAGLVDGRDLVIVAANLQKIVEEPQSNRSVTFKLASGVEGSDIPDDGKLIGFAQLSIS
In short: as §1

CAMK2A = CAMK2A (Homo sapiens, UniProt Q9UQM7)
Sequence of CAMK2A (Q9UQM7 whole entry): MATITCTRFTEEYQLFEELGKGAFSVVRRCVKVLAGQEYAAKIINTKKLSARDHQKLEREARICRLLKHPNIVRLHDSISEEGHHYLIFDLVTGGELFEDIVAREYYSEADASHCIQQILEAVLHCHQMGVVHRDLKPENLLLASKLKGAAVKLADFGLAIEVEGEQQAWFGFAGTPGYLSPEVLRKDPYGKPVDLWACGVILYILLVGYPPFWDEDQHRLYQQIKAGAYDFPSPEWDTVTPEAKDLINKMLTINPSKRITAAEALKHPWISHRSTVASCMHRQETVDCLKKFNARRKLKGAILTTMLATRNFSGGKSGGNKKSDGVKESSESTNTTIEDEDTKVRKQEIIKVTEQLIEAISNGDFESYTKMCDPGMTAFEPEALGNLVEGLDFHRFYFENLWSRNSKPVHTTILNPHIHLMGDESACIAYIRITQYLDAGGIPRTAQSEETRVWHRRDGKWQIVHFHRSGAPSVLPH
In short: as §1

SGK = molecular target: T2, SGK (Homo sapiens, UniProt O00141)
T2 construct: gene SGK1
In short: as §1

MARK4 = MARK4 (Homo sapiens, UniProt Q96L34)
In short: as §1

PRKR = molecular target: T3, PRKR (Homo sapiens, UniProt P19525)
T3 construct: gene EIF2AK2
In short: as §1

CDKL3 = CDKL3 (Homo sapiens, UniProt Q8IVW4)
In short: as §1

FGFR3(G697C) = FGFR3(G697C) (Homo sapiens, UniProt P22607, G697C)
In short: as §1

RET(V804L) = RET(V804L) (Homo sapiens, UniProt P07949, V804L)
In short: as §1

INSRR = INSRR (Homo sapiens, UniProt P14616)
In short: as §1

GCN2(Kin.Dom.2,S808G) = molecular target: T4, GCN2(Kin.Dom.2,S808G) (Homo sapiens, UniProt Q9P2K8, S808G)
T4 construct: gene EIF2AK4; Kin.Dom.2
In short: as §1

PIM1 = PIM1 (Homo sapiens, UniProt P11309)
Sequence of PIM1 (P11309 whole entry): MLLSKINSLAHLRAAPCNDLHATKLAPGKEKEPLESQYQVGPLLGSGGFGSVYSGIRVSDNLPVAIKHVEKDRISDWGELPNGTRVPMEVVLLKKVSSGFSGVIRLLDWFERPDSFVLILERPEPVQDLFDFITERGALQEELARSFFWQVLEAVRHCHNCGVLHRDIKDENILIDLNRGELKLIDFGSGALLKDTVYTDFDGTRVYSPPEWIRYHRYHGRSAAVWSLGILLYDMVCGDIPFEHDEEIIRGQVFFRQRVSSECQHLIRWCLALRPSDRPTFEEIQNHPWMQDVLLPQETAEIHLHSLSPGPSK
In short: as §1

SRPK3 = SRPK3 (Homo sapiens, UniProt Q9UPE1)
In short: as §1

MAPKAPK5 = MAPKAPK5 (Homo sapiens, UniProt Q8IW41)
In short: as §1

AURKB = AURKB (Homo sapiens, UniProt Q96GD4)
Sequence of AURKB (Q96GD4 whole entry): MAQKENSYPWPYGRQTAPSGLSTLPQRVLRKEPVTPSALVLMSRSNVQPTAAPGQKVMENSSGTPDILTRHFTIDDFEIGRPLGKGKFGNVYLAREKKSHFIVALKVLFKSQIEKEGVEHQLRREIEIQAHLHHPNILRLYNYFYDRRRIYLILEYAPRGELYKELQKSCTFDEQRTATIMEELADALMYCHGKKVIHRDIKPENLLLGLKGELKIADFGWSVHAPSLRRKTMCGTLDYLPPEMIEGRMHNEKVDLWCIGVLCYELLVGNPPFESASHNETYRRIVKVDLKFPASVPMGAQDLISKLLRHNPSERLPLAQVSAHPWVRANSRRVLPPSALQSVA
In short: as §1

ALK = ALK (Homo sapiens, UniProt Q9UM73)
Sequence of ALK (Q9UM73 whole entry): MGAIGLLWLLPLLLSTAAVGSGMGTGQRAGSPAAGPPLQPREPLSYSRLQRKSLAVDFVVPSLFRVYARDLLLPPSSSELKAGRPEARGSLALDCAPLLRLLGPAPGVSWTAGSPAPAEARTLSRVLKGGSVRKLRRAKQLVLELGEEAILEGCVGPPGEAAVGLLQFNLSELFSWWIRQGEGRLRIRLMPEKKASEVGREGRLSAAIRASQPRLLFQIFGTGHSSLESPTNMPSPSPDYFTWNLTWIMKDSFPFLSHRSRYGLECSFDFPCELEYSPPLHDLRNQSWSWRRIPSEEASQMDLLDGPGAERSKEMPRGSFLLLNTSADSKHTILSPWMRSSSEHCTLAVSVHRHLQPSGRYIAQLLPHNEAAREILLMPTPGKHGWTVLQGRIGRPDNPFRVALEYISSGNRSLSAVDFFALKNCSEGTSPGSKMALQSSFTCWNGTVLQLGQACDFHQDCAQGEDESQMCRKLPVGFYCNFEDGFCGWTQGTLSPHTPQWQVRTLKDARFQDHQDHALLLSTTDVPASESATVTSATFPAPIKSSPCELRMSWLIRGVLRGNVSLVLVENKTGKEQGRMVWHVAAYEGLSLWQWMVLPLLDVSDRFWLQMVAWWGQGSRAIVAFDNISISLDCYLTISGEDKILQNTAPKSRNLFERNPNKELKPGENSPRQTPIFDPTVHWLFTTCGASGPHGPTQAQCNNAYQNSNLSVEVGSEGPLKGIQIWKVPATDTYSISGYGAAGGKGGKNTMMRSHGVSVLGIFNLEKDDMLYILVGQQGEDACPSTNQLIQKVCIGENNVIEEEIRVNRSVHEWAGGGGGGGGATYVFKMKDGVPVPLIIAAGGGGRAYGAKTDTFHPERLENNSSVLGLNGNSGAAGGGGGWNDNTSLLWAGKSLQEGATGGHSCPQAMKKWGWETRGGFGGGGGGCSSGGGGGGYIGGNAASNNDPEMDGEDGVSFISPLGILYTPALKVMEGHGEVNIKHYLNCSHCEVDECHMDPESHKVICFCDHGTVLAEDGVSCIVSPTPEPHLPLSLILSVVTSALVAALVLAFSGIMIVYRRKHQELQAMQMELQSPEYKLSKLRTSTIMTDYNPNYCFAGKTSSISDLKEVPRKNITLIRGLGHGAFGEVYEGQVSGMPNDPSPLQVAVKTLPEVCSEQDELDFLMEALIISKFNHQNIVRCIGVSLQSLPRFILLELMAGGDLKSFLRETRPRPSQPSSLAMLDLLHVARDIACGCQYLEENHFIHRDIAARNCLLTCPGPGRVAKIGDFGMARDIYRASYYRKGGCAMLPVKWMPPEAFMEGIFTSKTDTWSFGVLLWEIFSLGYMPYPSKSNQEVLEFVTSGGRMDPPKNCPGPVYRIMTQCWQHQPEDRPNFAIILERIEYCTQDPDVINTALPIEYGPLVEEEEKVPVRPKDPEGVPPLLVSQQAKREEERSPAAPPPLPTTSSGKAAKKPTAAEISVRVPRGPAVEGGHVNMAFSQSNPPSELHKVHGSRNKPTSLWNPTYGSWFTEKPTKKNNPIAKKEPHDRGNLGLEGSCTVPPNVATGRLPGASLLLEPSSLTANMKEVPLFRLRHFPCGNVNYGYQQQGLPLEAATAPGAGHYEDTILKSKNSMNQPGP
In short: as §1

ACVR1 = ACVR1 (Homo sapiens, UniProt Q04771)
In short: as §1

MERTK = MERTK (Homo sapiens, UniProt Q12866)
In short: as §1

EGFR(E746-A750del) = EGFR(E746-A750del) (Homo sapiens, UniProt P00533, DEL746-750)
Sequence of EGFR(E746-A750del) (P00533 with tags, fused parts or gaps DEL746-750): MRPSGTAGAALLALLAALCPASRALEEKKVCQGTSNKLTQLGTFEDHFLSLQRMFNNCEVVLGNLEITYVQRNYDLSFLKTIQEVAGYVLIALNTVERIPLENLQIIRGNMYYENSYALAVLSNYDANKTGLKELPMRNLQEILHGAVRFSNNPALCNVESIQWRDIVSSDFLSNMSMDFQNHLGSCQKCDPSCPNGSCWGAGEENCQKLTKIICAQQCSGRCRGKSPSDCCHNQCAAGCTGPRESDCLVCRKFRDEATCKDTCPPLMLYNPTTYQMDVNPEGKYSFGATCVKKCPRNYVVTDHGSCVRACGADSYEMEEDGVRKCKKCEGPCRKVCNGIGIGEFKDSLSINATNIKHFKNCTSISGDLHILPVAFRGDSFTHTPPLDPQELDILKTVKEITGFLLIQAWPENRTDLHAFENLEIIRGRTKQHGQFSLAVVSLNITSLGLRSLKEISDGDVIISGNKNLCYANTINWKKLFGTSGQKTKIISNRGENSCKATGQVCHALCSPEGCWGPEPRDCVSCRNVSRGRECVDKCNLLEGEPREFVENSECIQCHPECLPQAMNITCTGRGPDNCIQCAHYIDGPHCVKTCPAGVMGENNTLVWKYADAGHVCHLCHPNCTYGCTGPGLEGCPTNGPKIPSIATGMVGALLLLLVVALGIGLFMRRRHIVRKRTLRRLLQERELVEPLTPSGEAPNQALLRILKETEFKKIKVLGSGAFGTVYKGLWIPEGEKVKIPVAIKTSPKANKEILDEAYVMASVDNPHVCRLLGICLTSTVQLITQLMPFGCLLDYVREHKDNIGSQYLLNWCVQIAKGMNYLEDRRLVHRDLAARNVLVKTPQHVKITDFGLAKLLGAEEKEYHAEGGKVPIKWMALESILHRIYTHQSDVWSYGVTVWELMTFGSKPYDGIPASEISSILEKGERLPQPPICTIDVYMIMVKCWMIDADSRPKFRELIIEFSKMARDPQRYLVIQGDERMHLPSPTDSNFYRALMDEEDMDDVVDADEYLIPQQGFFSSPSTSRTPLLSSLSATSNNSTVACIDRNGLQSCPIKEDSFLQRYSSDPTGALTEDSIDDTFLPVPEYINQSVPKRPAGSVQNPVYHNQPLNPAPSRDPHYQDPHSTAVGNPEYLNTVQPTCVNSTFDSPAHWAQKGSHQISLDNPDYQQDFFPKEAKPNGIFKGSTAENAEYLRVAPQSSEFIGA
In short: as §1

LKB1 = molecular target: T5, LKB1 (Homo sapiens, UniProt Q15831)
T5 construct: gene STK11
T5 sequence (Q15831 whole entry): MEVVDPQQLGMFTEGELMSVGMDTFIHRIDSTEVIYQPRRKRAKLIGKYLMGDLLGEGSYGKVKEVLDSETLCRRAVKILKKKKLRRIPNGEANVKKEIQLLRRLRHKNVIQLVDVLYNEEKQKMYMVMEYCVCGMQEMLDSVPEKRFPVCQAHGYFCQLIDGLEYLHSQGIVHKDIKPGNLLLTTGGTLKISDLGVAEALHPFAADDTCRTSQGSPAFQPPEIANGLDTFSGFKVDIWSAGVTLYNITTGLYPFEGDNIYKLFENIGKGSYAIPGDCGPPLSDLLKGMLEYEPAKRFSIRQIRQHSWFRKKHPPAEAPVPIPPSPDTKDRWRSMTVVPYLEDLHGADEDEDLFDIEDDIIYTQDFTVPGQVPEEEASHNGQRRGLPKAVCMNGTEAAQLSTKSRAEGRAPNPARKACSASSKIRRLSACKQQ
In short: as §1

`[O-][S@@+](Cc1cncs1)C(c1ccccc1)c1ccccc1` [S-CE-123, (S)-5-((Benzhydrylsulfinyl)Methyl)Thiazole] was tested, and the remaining binding at 2.8 µM (PIK3CA(Q546K)) was 97%, the remaining binding at 2.8 µM (DAPK3) was 96% and the remaining binding at 2.8 µM (BMPR2) was 100%. The remaining binding at 2.8 µM (GSK3B) was 92%, the remaining binding at 2.8 µM (TGFBR1) was 86% and the remaining binding at 2.8 µM (PLK4) was 89%. For the same molecule, the remaining binding at 2.8 µM (PKMYT1) was 88%, the remaining binding at 2.8 µM (OSR1) was 90% and the remaining binding at 2.8 µM (CAMK2A) was 93%. For the same molecule, the remaining binding at 2.8 µM (SGK) was 94%, the remaining binding at 2.8 µM (MARK4) was 98% and the remaining binding at 2.8 µM (PRKR) was 93%. The remaining binding at 2.8 µM (CDKL3) was 81%, the remaining binding at 2.8 µM (FGFR3(G697C)) was 96% and the remaining binding at 2.8 µM (RET(V804L)) was 91%. It also gave a remaining binding at 2.8 µM (INSRR) of 94%, a remaining binding at 2.8 µM (GCN2(Kin.Dom.2,S808G)) of 100% and a remaining binding at 2.8 µM (PIM1) of 100%. The remaining binding at 2.8 µM (SRPK3) was 76%, the remaining binding at 2.8 µM (MAPKAPK5) was 100% and the remaining binding at 2.8 µM (AURKB) was 78%. For the same molecule, the remaining binding at 2.8 µM (ALK) was 100%, the remaining binding at 2.8 µM (ACVR1) was 99% and the remaining binding at 2.8 µM (MERTK) was 63%. For the same molecule, the remaining binding at 2.8 µM (EGFR(E746-A750del)) was 93% and the remaining binding at 2.8 µM (LKB1) was 100%.
